We go through 4 compounds from patent EP0212822A1, “A composition containing a plant growth regulator and an alkanol and a method of using the same” (ICI AMERICAS INC., priority 1985, dated 1987).

The test system of data set [1] is Liquidambar styraciflua (Sweetgum). Nature of the data set: Trunk injection of PGR in ethanol or methanol, ratings. In kind it is in vivo. Here is the method:
The examples which follow exemplify the improvements obtained by this invention. However, these examples are not intended to limit the scope of the invention. In Examples 1-41, the subject trees were injected at a distance approximately one foot from the soil line by drilling 7/32 inch diameter holes to a 2 inch depth at a 30-45° angle tangential to the trunk with a pressure injector (150 psi) purchased from the Asplundh Tree Expert Co., Company No. 346-3502. The results are expressed in terms of Retardation and Uniformity Ratings. The Retardation rating scale is as follows: • 0 = no retardataion • 1 = 1-20% retardation • 2 = 21-40% retardation • 3 = 41-60% retardation • 4 = 61-80% retardation • 5 = 81-100% retardation
The Uniformity Rating is a measure of the consistency of response to the treatment between different branches of the tree. The Uniformity scale employed is as follows: • 0 = no effect from PGR • 1 = poor • 2 = fair • 3 = acceptable • 4 = very good • 5 = excellent
20 grams of PGR were dissolved in 1 liter of solvent at room temperature and stirred until the solution was clear, approximately 20 minutes. The solution was injected into the trunk of Liquidambar styraciflua (Sweetgum).

Data set [2] relates to Vicia faba (Broadbean). Nature of the data set: Stem injection with hypodermic syringe, growth as % of control. The class given is in vivo. To be noted: 0.1 ml injected, averaged over four replications. Here is the method: 10 grams of PGR were dissolved in 1 liter of solvent at room temperature and stirred until the solution was clean, approximately 20 minutes. 0.1 ml of the solution was injected, […] above the soil level, in Vicia faba (Broadbean) with a hypodermic syringe.

Data set [3] in a line: Adsorption of tracer dyes to sawdust. In kind it is physicochemical, Birch and Ash. As for the experimental part: 0.1 g of methylene blue and 0.1 g of acid fuschin were each dissolved in 1 liter of methanol (Me), […] methanol/water (Me/Wa) and water (Wa). 2 g (fresh weight) of sawdust taken from the active conductive tissues of Birch and Ash were combined with 20 ml of solution. The dye solutions were shaken overnight. The supernatant was decanted and the quantity of dye remaining in solution estimated by spectroscopy.

Where [4] appears, read: week 2, 20 grams of PGR in 1 liter Ethanol.
Setting [5] is: week 2, 20 grams of PGR in 1 liter Methanol.
Where [6] appears, read: week 6, 20 grams of PGR in 1 liter Ethanol.
Setting [7] is: week 6, 20 grams of PGR in 1 liter Methanol.
Setting [8] is: 14 days, 10 grams of PGR in 1 liter Ethanol.
Where [9] appears, read: 14 days, 10 grams of PGR in 1 liter Methanol.
Setting [10] is: 21 days, 10 grams of PGR in 1 liter Ethanol.
Where [11] appears, read: 21 days, 10 grams of PGR in 1 liter Methanol.

“Also recorded” adds a separate entry of the source.

Take `CC(C)(C)C(O)C(Cc1ccc(Cl)cc1)n1cncn1` (stereo not drawn) [PGR-1]: the “Retardation/ Uniformity Ratings at Indicated Week After Treatment” value in data set [1] (setting [4]) is recorded as 1 (1 = 1-20% retardation); in data set [1] (setting [5]), 1 (1 = 1-20% retardation); in data set [1] (setting [6]) it was 3 (3 = 41-60% retardation); in data set [1] (setting [7]), 4 (4 = 61-80% retardation). The “Growth (% Control) At Indicated Days After Treatment” value in data set [2] (setting [8]) is given as 13 % Control; in data set [2] (setting [9]), 12 % Control; in data set [2] (setting [10]) it was 18 % Control; in data set [2] (setting [11]) it was 17 % Control.
Turning to `CC(C)C(O)(c1ccc(OC(F)(F)F)cc1)c1cncnc1` (stereo not drawn) [PGR-2], the “Retardation/ Uniformity Ratings at Indicated Week After Treatment” value is 1 (1 = 1-20% retardation) in data set [1] (setting [4]), 1 (1 = 1-20% retardation) in data set [1] (setting [5]), 3 (3 = 41-60% retardation) in data set [1] (setting [6]) and 3 (3 = 41-60% retardation) in data set [1] (setting [7]). The “Growth (% Control) At Indicated Days After Treatment” value in data set [2] (setting [8]) worked out at 6 % Control; in data set [2] (setting [9]) it was 10 % Control; in data set [2] (setting [10]), 7 % Control; in data set [2] (setting [11]), 10 % Control.
For the compound `CC1=CC(=C(c2ccc(N)c(S(=O)(=O)O)c2)c2ccc(N)c(S(=O)(=O)O)c2)C=C(S(=O)(=O)O)C1=N` [acid fuschin], the “binding of dye to wood” value in data set [3] (either solvent (water and methanol)) was “binds only partially; also recorded: binds weakly”.
For the compound `CN(C)c1ccc2nc3ccc(=[N+](C)C)cc-3sc2c1` [methylene blue], the “binding of dye to wood” value was “binds weakly” in data set [3] (methanol as solvent); “weakly” in data set [3] (methanol as solvent, listed as Methylene blue); “binding almost completely” in data set [3] (water as solvent); “binds strongly” in data set [3] (water as solvent, listed as Methylene blue).
